Laboratory results from US20150057363A1, “TREATMENT OF METHYLMALONIC ACIDURIA, ISOVALERIC ACIDURIA, AND OTHER ORGANIC ACIDURIAS WITH TOCOTRIENOL QUINONES” (priority 2011, published 2015).

What was measured:
[1] = Pharmacokinetics of alpha-tocotrienol quinone in rats; format: in vivo, rat
Description: (§1) The particular dosage appropriate for a specific patient is determined by dose titration. […] This lack of dose-proportionality may be due to decreased absorption since there is no change in t1/2 over dose range. Alpha-tocotrienol quinone tested in rats was safe when given acutely up to 2000 mg/kg.

[2] = Blood-brain barrier crossing in mice; format: in vivo
[3] = system: rats; conditions: rat, in vivo
Description: as §1
The starting dose can be estimated based on the United States Food and Drug Administration guidelines titled “Estimating the Maximum Safe Starting Dose in Initial Clinical Trials for Therapeutics in Adult Healthy Volunteers” (July 2005) as well as the International Conference on Harmonisation of Technical Requirements for Registration of Pharmaceuticals for Human Use (ICH) guidelines titled “Guidance on Non-clinical Safety Studies for the Conduct of Human Clinical Trials and Marketing Authorization for Pharmaceuticals” (July 2008). Per ICH guidelines, predicted exposures from the starting dose should not exceed 1/50th the NOAEL (No-Adverse-Observed-Effect-Level) in the more sensitive species on a mg/m^2 basis. Following a single oral dose of alpha-tocotrienol quinone, the NOAEL was established to be 500 mg/kg for the female rat, i.e. 3,000 mg/m2. This dosage would be equivalent to 81 mg/kg in an adult human. 1/50th of 81 mg/kg is 1.6 mg/kg, i.e. 110 mg for a 70 kg adult, or 16 mg for a 10 kg child. This dose can be administered once, twice, or three times daily.

[4] = Pharmacokinetics of alpha-tocotrienol quinone in fasted dogs; conditions: dog, in vivo, po, 10 mg/kg
Description: as §1

[5] = system: MMA fibroblasts; assay: MMA cell line assay: rescue of BSO-stressed fibroblasts (cell viability, Calcein AM); format: cell-based; conditions: Homo sapiens, Fibroblast; fibroblasts from MMA patient stressed with 25 μM BSO; Calcein AM readout; read-out: ED50 (protection of cell viability)
Description: Alpha-Tocotrienol quinone, its redox-silent version (the bis-Boc protected corresponding hydroquinone), and solvent controls were tested for their ability to rescue cells from MMA fibroblasts of the patient diagnosed with MMA, when the cells were stressed by addition of L-buthionine-(S,R)-sulfoximine (BSO), as described in Jauslin et al., Hum. Mol. Genet. 11(24):3055 (2002), Jauslin et al., FASEB J. 17:1972-4 (2003), and International Patent Application WO 2004/003565. EC50 concentrations of test compound and its redox-silent version were determined and compared. The following compound, 2-((6E,10E)-3-hydroxy-3,7,11,15-tetramethylhexadeca-6,10,14-trienyl)-3,5,6-trimethyl-bis(t-butyloxycarbonyl)benzene-1,4-diol, the bis-Boc protected hydroquinone form of alpha-tocotrienol quinone, was used as the “redox-silent” alpha tocotrienol quinone, or αTTQ-RS.
DMEM (Dulbecco's Modified Eagle Medium)—No Glucose, No pyruvate—GIBCO®—Catalog number 11966-025 from Invitrogen. Fetal Calf Serum was obtained from PAA Laboratories. Basic fibroblast growth factor and epidermal growth factor were purchased from PeproTech. Penicillin-streptomycin-glutamine mix, L-buthionine (S,R)-sulfoximine, and insulin from bovine pancreas were purchased from Sigma. Calcein AM was purchased from Molecular Probes. […]

CC(C)=CCC/C(C)=C/CC/C(C)=C/CCC(C)(O)CCC1=C(C)C(=O)C(C)=C(C)C1=O (stereo not drawn) [alpha-tocotrienol quinone, Alpha-tocotrienol quinone]
dose-proportionality of AUC ([1]; increase in doses of 2.4: 6: 10: 20 gives increase in AUCs of 1.5: 2.8: 4.0: 6.7): less than dose-proportionality
bioavailability ([1]; rat, in vivo, 10 mg/kg): ~90%
crosses the blood-brain barrier [2]: crosses the blood-brain barrier
safe when given acutely up to [3]: up to 2000 mg/kg
NOAEL on mg/m2 basis ([3]; po): 3,000 mg/m2
bioavailability [4]: ~16%
EC50 [5]: 23 nM
